Results: BindingDB's records for doi:10.1021/jm060797q (Teikyo University, 2006)

Experiment: Antagonist activity against 1-alpha,25-dihydroxy vitamin D3-induced HL60 cell differentiation by NBT reduction method

`C=C1C(=O)O[C@@H](C[C@@H](C)[C@H]2CC[C@H]3/C(=C/C=C4/C[C@@H](O)C[C@H](O)C4=C)CCC[C@]23C)[C@@H]1CCCC` and `C=C1/C(=C\C=C2/CCC[C@]3(C)[C@@H]([C@H](C)C[C@@H]4OC(=O)C(=C)[C@H]4CCCC)CC[C@@H]23)C[C@@H](O)[C@H](OCCCO)[C@@H]1O` are within 1.5-fold of each other in IC50: 8.2 nM for the first, 8.8 nM for the second.

`C=C1/C(=C\C=C2/CCC[C@]3(C)[C@@H]([C@H](C)C[C@H]4OC(=O)C(=C)[C@H]4CCC)CC[C@@H]23)C[C@@H](O)[C@H](OCCCO)[C@@H]1O` and `C=C1/C(=C\C=C2/CCC[C@]3(C)[C@@H]([C@H](C)C[C@H]4OC(=O)C(=C)[C@@H]4CCC)CC[C@@H]23)C[C@@H](O)[C@H](C)[C@@H]1O` are the same in IC50: 6.3 nM for the first, 6.3 nM for the second.

With `C=C1/C(=C\C=C2/CCC[C@]3(C)[C@@H]([C@H](C)C[C@@H]4OC(=O)C(=C)[C@H]4CCC)CC[C@@H]23)C[C@@H](O)[C@H](C)[C@@H]1O` the IC50 was 6.3 nM.
